Reference: PMC4718910 (SpringerPlus, 2016)
Read-outs that look alike come from different tables or passages of the source.

Columns and labels:
[1] = Afatinib plasma pharmacokinetics (HPLC-MS/MS); format: in vivo, human; settings: for AUC / Tmax: human, plasma, po; for AUC: read-out: AUCtau,ss, geometric mean; for Tmax: read-out: tmax,ss, median
[2] = Letrozole plasma pharmacokinetics (HPLC-MS/MS); format: in vivo, human
Protocol: For quantification of drug plasma concentrations, 5 mL of venous blood was collected. […] Letrozole plasma concentrations were determined by a validated HPLC–MS/MS assay at Nuvisan Pharma Services GmbH & Co. KG, Neu-Ulm, Germany.

ErbB3 = system: ErbB3; set-up: method as in Li et al. [2008]; settings: ref Li et al. [2008]; cited from earlier work
[3] = system: HER2-positive metastatic breast cancer (MBC); set-up: method as in Lin et al. [2012]; settings: afatinib monotherapy 50 mg/day, heavily pre-treated HER2-positive MBC after trastuzumab; ref Lin et al. [2012]; cited from earlier work
HER2 = settings: read-out: half maximal inhibitory concentration, HER2; ref Li et al. [2008]; cited from earlier work
ErbB4 = settings: read-out: half maximal inhibitory concentration, ErbB4; ref Li et al. [2008]; cited from earlier work
ER/PgR/HER2-positive MBC = system: ER/PgR/HER2-positive MBC; set-up: method as in Kaufman et al. [2009]; settings: N 207, ref Kaufman et al. [2009]; cited from earlier work
ER/PgR-positive MBC = system: ER/PgR-positive MBC; set-up: method as in Huober et al. [2012]; settings: ref Huober et al. [2012], cited from earlier work
[4] = system: ER/PgR-positive HER2-negative MBC; set-up: method as in Bachelot et al. [2012]; settings: aromatase inhibitor-resistant, N 111; ref Bachelot et al. [2012]; cited from earlier work
[5] = Afatinib 30 mg multiple oral administrations with letrozole 2.5 mg, N 5
[6] = Afatinib 40 mg multiple oral administrations with letrozole 2.5 mg, N 4
[7] = ER/PgR-positive HER2-negative MBC, N 35

## CN(C)C/C=C/C(=O)Nc1cc2c(Nc3ccc(F)c(Cl)c3)ncnc2cc1O[C@H]1CCOC1 [Afatinib]
[1]; Afatinib 30 mg with letrozole 2.5 mg, pre-dose day 1 of cycle 3, N 8
  Cpre,ss, 57, geometric mean: 15.8 ng/mL
[1]; Afatinib 30 mg with letrozole 2.5 mg, pre-dose day 1 of cycle 4, N 5
  Cpre,ss, 85, geometric mean: 17.3 ng/mL
[1]; Afatinib 40 mg with letrozole 2.5 mg, pre-dose day 1 of cycle 3, N 5
  Cpre,ss, 57, geometric mean: 21.4 ng/mL
[1]; Afatinib 40 mg with letrozole 2.5 mg, pre-dose day 1 of cycle 4, N 4
  Cpre,ss, 85, geometric mean: 16.9 ng/mL
[1]; [5]
  AUC: 579 ng·h/mL
  Tmax: 4 h
[1]; [6]
  AUC: 660 ng·h/mL
  Tmax: 2 h
[2]; letrozole trough and 2-h post-dose plasma concentrations, screening period vs afatinib treatment period
  effect of afatinib on letrozole exposure: no effect
ErbB3
  ErbB3 transphosphorylation: inhibits ErbB3 transphosphorylation
[3]
  Median PFS: 15 weeks
  overall survival (OS): 61 weeks
HER2
  IC50: 14 nM
ErbB4
  IC50: […]

## CC(C)(C#N)c1cc(Cn2cncn2)cc(C(C)(C)C#N)c1 [Anastrozole]
ER/PgR/HER2-positive MBC
  Median PFS (independent assessment): 2.4 (independent assessment) months

## N#Cc1ccc(C(c2ccc(C#N)cc2)n2cncn2)cc1 [Letrozole]
[2]; human, plasma, oral, 2.5 mg, read-out: geometric mean AUCtau,ss
  AUC: 2420 ng·h/mL
[2]; human, plasma, oral, 2.5 mg, read-out: geometric mean Cmax,ss
  Cmax: 135 ng/mL
ER/PgR-positive MBC; [7]
  Grade ≥3 bone pain: Bone pain 6%
  Median PFS: 15.2 months
ER/PgR-positive MBC; ER/PgR/HER2-positive MBC, first-line
  Median PFS: 3.3 months
ER/PgR-positive MBC; ER/PgR/HER2-positive MBC
  Grade ≥3 bone pain: 7%
  Grade ≥3 dyspnea: 7%

## CC/C(=C(\c1ccccc1)c1ccc(OCCN(C)C)cc1)c1ccccc1 [Tamoxifen]
[4]
  Clinical benefit rate: Clinical benefit rate = 42%
